From patent US8962842B2, “2-pyridone antimicrobial compositions” (priority 2010, dated 2015)
Read-outs that look alike come from different tables or passages of the source.

Assays:
[1] = test system: Staphylococcus aureus (16 strains); assay: MIC range, broader panel of Quotient Bioresearch strains (Table 3)
[2] = test system: Burkholderia cepacia (5 strains); assay: MIC range, broader panel of Quotient Bioresearch strains (Table 4); type: cell-based

Cc1c(-c2ccc3[nH]ncc3c2)ccn2c(=O)c(C(=O)[O-])cc(C3CC3)c12.[K+] [Example 23 K salt, potassium 1-cyclopropyl-8-(1H-indazol-5-yl)-9-methyl-4-oxo-4H-quinolizine-3-carboxylate]
MIC ([1]; read-out: MIC Range High, Staphylococcus aureus (16 strains)): 0.12 µg/mL | MIC50 ([1]; read-out: MIC Range Median, Staphylococcus aureus (16 strains)): 0.03 µg/mL | MIC ([2]; read-out: MIC Range High, Burkholderia cepacia (5 strains)): 0.25 µg/mL | MIC ([2]; read-out: MIC Range Low, Burkholderia cepacia (5 strains)): ≤ 0.015 µg/mL | MIC50 ([2]; read-out: MIC Range Median, Burkholderia cepacia (5 strains)): 0.06 µg/mL
